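In this assay, cells in 96-well plates receive the compound at five concentrations for 48 hours. Endpoints are linearly interpolated between the surrounding concentrations. TGI denotes the concentration required for complete inhibition of growth.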
Assays:
Test in all cases: growth of human tumour cells (NCI), 48 h
NCI-H460 lung = tested on: NCI-H460 lung
MDA-N = tested on: MDA-N
NCI-H522 lung = tested on: NCI-H522 lung
HS 578T breast = tested on: HS 578T breast
DU-145 prostate = tested on: DU-145 prostate
UACC-62 melanoma = tested on: UACC-62 melanoma
CAKI-1 renal = tested on: CAKI-1 renal
A498 renal = tested on: A498 renal
HCT-116 colon = tested on: HCT-116 colon
OVCAR-3 ovarian = tested on: OVCAR-3 ovarian
SK-MEL-28 melanoma = tested on: SK-MEL-28 melanoma
CCRF-CEM leukemia = tested on: CCRF-CEM leukemia
NCI-H23 lung = tested on: NCI-H23 lung
HOP-62 NSCLC = tested on: HOP-62 NSCLC
SNB-75 CNS = tested on: SNB-75 CNS
TK-10 renal = tested on: TK-10 renal
SN12C renal = tested on: SN12C renal
K-562 leukemia = tested on: K-562 leukemia
OVCAR-5 ovarian = tested on: OVCAR-5 ovarian
SF-268 CNS = tested on: SF-268 CNS
T-47D breast = tested on: T-47D breast
IGROV1 ovarian = tested on: IGROV1 ovarian
U251 CNS = tested on: U251 CNS
EKVX NSCLC = tested on: EKVX NSCLC
OVCAR-8 ovarian = tested on: OVCAR-8 ovarian
SNB-19 CNS = tested on: SNB-19 CNS
SK-OV-3 ovarian = tested on: SK-OV-3 ovarian
SF-539 CNS = tested on: SF-539 CNS
A549 NSCLC = tested on: A549 NSCLC
HT29 colon = tested on: HT29 colon
SF-295 CNS = tested on: SF-295 CNS
COLO 205 colon = tested on: COLO 205 colon
HL-60(TB) leukemia = tested on: HL-60(TB) leukemia
MOLT-4 leukemia = tested on: MOLT-4 leukemia
UO-31 renal = tested on: UO-31 renal
786-0 renal = tested on: 786-0 renal
HCC-2998 colon = tested on: HCC-2998 colon
SR leukemia = tested on: SR leukemia
OVCAR-4 ovarian = tested on: OVCAR-4 ovarian
SK-MEL-2 melanoma = tested on: SK-MEL-2 melanoma
SK-MEL-5 melanoma = tested on: SK-MEL-5 melanoma
KM12 colon = tested on: KM12 colon
MCF7 breast = tested on: MCF7 breast
HCT-15 colon = tested on: HCT-15 colon
RPMI-8226 leukemia = tested on: RPMI-8226 leukemia
NCI-H226 lung = tested on: NCI-H226 lung
UACC-257 melanoma = tested on: UACC-257 melanoma
MDA-MB-231 breast = tested on: MDA-MB-231 breast
SW-620 colon = tested on: SW-620 colon
LOX IMVI melanoma = tested on: LOX IMVI melanoma
M14 melanoma = tested on: M14 melanoma
ACHN renal = tested on: ACHN renal
RXF 393 renal = tested on: RXF 393 renal
HOP-92 NSCLC = tested on: HOP-92 NSCLC
MALME-3M melanoma = tested on: MALME-3M melanoma
MDA-MB-435 = tested on: MDA-MB-435
NCI/ADR-RES ovarian = tested on: NCI/ADR-RES ovarian
PC-3 prostate = tested on: PC-3 prostate

Structure (SMILES): CCCOc1ccc(-c2nc(-c3ccc(N=Cc4ccc(N(CCOS(C)(=O)=O)CCOS(C)(=O)=O)cc4C)cc3)cs2)cc1
- TGI (NCI-H460 lung): 24 µM
- TGI (MDA-N): > 85 µM
- TGI (NCI-H522 lung): 4.99 µM
- TGI (HS 578T breast): > 90.9 µM
- TGI (DU-145 prostate): 18.1 µM
- TGI (UACC-62 melanoma): > 69.6 µM
- TGI (CAKI-1 renal): 12.8 µM
- TGI (A498 renal): 24.2 µM
- TGI (HCT-116 colon): > 85.2 µM
- TGI (OVCAR-3 ovarian): 55.4 µM
- TGI (SK-MEL-28 melanoma): > 100 µM
- TGI (CCRF-CEM leukemia): > 100 µM
- TGI (NCI-H23 lung): 30.8 µM
- TGI (HOP-62 NSCLC): 43.7 µM
- TGI (SNB-75 CNS): 18 µM
- TGI (TK-10 renal): 41.1 µM
- TGI (SN12C renal): > 92.6 µM
- TGI (K-562 leukemia): > 100 µM
- TGI (OVCAR-5 ovarian): > 71.7 µM
- TGI (SF-268 CNS): 77.8 µM
- TGI (T-47D breast): > 92.1 µM
- TGI (IGROV1 ovarian): > 67.1 µM
- TGI (U251 CNS): 52.4 µM
- TGI (EKVX NSCLC): 56.9 µM
- TGI (OVCAR-8 ovarian): > 100 µM
- TGI (SNB-19 CNS): > 94.5 µM
- TGI (SK-OV-3 ovarian): 43.2 µM
- TGI (SF-539 CNS): 48.8 µM
- TGI (A549 NSCLC): 34.2 µM
- TGI (HT29 colon): > 73.9 µM
- TGI (SF-295 CNS): 45.5 µM
- TGI (COLO 205 colon): 14.9 µM
- TGI (HL-60(TB) leukemia): 54 µM
- TGI (MOLT-4 leukemia): 66.6 µM
- TGI (UO-31 renal): 48 µM
- TGI (786-0 renal): 26.5 µM
- TGI (HCC-2998 colon): 26.8 µM
- TGI (SR leukemia): 57 µM
- TGI (OVCAR-4 ovarian): 81.9 µM
- TGI (SK-MEL-2 melanoma): 50.9 µM
- TGI (SK-MEL-5 melanoma): > 71.3 µM
- TGI (KM12 colon): 42 µM
- TGI (MCF7 breast): > 100 µM
- TGI (HCT-15 colon): > 72.2 µM
- TGI (RPMI-8226 leukemia): > 100 µM
- TGI (NCI-H226 lung): 84.5 µM
- TGI (UACC-257 melanoma): > 100 µM
- TGI (MDA-MB-231 breast): 86 µM
- TGI (SW-620 colon): > 100 µM
- TGI (LOX IMVI melanoma): 66.8 µM
- TGI (M14 melanoma): > 86.4 µM
- TGI (ACHN renal): 18.7 µM
- TGI (RXF 393 renal): 28.9 µM
- TGI (HOP-92 NSCLC): 52.7 µM
- TGI (MALME-3M melanoma): > 95.6 µM
- TGI (MDA-MB-435): > 100 µM
- TGI (NCI/ADR-RES ovarian): > 84.6 µM
- TGI (PC-3 prostate): 77.9 µM

Source: PubChem BioAssay (NCI)
